Results as given in US11352340B2, “Pyridine and pyridimine compounds as PI3K-gamma inhibitors” (Incyte Corporation, priority 2016, dated 2022).
Structures can show the parent of a compound that is named as a salt.

Assays:
[1] = target: PI3Kγ (p110γ) Recombinant Human Protein (Homo sapiens (Human), UniProt P48736); assay: PI3K-γ Scintillation Proximity Assay; assay type: biochemical; details: read-out: PI3K-gamma SPA IC50
From the text: Example B. PI3K-γ Scintillation Proximity Assay
(§1) [γ-^33P]ATP (10 mCi/mL) and Wheat Germ Agglutinin (WGA) YSi SPA Scintillation Beads was purchased from Perkin-Elmer (Waltham, Mass.). Lipid kinase substrate, D-myo-Phosphatidylinositol 4,5-bisphosphate (PtdIns(4,5)P2)D (+)-sn-1,2-di-O-octanoylglyceryl, 3-O-phospho linked (PIP2), CAS 204858-53-7, was purchased from Echelon Biosciences (Salt Lake City, Utah). PI3Kγ (p110γ) Recombinant Human Protein was purchased from Life technology (Grand Island, N.Y.). ATP, MgCl2, DTT, EDTA, MOPS and CHAPS were purchased from Sigma-Aldrich (St. Louis, Mo.).
(§2) The kinase reaction was conducted in polystyrene 384-well Greiner Bio-one white plate from Thermo Fisher Scientific in a final volume of 25 μL. Inhibitors were first diluted serially in DMSO and added to the plate wells before the addition of other reaction components. The final concentration of DMSO in the assay was 2%. The PI3Kγ assay was carried out at room temperature in 20 mM MOPS, pH 6.7, 10 mM MgCl2, 5 mM DTT and CHAPS 0.03%. Reactions were initiated by the addition of ATP, the final reaction mixture consisted of 20 μM PIP2, 2 μM ATP, 0.5 μCi [γ-^33P] ATP, 13 nM PI3Kγ. Reactions were incubated for 120 min and terminated by the addition of 40 μL SPA beads suspended in quench buffer: 163 mM potassium phosphate pH 7.8, 20% glycerol, 25 mM EDTA. The final concentration of SPA beads is 1.0 mg/mL. After the plate sealing, plates were shaken overnight at room temperature and centrifuged at 1500 rpm for 10 min, the radioactivity of the product was determined by scintillation counting on Topcount (Perkin-Elmer). IC50 determination was performed by fitting the curve of percent of the solvent control activity versus the log of the inhibitor concentration using the GraphPad Prism 6.0 software.

[2] = target: PI3Kδ (p110δ/p85α) Recombinant Human Protein (Homo sapiens (Human), UniProt O00329); assay: PI3Kδ Scintillation Proximity Assay; assay type: biochemical; details: read-out: PI3K-delta SPA IC50
Sequence of PI3Kδ (p110δ/p85α) Recombinant Human Protein (O00329 whole entry): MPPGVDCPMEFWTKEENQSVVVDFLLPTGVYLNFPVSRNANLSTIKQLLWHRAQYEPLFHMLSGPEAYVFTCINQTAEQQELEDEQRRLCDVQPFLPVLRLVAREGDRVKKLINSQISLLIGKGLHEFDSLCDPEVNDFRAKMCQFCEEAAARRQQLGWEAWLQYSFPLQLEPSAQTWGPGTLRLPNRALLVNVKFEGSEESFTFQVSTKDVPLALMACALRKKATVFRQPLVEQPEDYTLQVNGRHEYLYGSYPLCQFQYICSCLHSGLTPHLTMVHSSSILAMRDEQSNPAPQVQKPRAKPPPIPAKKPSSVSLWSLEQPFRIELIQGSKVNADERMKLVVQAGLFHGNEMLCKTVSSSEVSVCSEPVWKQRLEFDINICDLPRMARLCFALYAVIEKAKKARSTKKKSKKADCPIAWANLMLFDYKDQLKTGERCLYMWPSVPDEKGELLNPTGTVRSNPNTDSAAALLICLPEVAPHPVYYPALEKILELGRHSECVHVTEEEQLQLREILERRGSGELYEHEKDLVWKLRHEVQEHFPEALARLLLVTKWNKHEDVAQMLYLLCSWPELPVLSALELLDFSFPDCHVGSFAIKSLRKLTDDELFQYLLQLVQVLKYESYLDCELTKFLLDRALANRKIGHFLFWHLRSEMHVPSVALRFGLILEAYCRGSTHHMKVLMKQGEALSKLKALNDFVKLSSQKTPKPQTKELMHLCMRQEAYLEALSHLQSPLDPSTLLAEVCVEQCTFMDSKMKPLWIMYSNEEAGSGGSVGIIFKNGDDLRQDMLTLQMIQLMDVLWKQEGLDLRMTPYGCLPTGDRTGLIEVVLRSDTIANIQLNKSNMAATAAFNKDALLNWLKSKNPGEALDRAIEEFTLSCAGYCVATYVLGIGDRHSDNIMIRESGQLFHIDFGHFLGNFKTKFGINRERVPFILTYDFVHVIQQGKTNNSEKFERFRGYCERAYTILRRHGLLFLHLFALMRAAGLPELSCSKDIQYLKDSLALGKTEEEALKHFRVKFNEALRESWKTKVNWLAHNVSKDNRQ
Sequence of PI3Kδ (p110δ/p85α) Recombinant Human Protein (P27986 whole entry partner): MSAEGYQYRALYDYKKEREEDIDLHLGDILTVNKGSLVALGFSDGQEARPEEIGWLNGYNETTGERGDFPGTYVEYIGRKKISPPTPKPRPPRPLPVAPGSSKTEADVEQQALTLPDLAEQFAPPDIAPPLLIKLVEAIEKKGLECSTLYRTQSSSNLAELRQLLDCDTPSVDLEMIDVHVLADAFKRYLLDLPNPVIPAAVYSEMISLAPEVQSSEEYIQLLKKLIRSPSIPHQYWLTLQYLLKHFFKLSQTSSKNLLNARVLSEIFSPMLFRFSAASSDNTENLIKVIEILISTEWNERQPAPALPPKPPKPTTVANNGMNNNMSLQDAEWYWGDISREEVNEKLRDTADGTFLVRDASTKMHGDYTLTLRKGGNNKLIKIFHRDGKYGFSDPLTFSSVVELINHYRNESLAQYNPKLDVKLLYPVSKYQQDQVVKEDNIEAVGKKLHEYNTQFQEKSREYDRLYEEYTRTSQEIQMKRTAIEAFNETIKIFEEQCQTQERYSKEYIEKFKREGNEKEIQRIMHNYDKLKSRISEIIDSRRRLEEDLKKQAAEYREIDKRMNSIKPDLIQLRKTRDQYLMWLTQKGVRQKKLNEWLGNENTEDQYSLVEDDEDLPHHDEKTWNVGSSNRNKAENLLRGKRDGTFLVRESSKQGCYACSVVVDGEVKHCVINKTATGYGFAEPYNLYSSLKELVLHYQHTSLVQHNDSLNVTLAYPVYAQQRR
From the text: Example C. PI3Kδ Scintillation Proximity Assay
as §1, with “PI3Kδ (p110δ/p85α)” for “PI3Kγ (p110γ)”, “Eurofins (St Charles, Mo.).” for “Life technology (Grand Island, N.Y.).”
as §2, with “PI3Kδ” for “PI3Kγ”, “3.4” for “13”, “PI3Kδ.” for “PI3Kγ.”

Sequence of PI3Kγ (p110γ) Recombinant Human Protein (P48736 whole entry): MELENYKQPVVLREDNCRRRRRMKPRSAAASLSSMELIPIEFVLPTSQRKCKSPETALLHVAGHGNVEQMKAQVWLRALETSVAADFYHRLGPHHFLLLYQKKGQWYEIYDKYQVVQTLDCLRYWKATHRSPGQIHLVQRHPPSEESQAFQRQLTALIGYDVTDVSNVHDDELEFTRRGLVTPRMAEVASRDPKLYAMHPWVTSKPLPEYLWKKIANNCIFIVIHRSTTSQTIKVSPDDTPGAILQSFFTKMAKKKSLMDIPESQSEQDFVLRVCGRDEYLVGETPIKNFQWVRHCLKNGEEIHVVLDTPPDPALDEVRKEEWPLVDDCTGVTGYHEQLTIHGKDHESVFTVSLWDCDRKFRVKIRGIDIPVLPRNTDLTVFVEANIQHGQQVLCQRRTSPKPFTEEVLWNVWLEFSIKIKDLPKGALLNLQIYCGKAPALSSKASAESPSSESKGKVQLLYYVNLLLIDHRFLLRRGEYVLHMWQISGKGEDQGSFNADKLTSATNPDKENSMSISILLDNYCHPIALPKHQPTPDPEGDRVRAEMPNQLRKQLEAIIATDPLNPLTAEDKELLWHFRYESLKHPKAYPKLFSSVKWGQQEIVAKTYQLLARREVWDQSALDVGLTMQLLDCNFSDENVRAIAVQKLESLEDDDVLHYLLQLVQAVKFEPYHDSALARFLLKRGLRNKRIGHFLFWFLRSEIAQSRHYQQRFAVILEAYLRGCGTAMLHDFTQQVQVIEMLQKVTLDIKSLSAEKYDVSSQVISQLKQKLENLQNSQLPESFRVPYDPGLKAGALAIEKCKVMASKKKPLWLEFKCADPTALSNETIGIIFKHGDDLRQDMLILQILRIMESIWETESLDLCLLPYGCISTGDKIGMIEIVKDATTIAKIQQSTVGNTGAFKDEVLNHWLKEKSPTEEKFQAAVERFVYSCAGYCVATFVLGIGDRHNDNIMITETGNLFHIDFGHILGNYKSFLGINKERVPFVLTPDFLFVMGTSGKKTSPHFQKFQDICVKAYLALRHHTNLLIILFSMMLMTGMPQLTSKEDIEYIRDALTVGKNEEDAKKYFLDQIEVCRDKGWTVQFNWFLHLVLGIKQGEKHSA

IC50 [1] [nM] | IC50 [2] [nM] | SMILES
> 500 | > 500 | CC(=O)N1CC=C(c2ccnc(-c3nc(C)c(C)[nH]3)c2)CC1 [Example 217, 1(4-(2-(4,5-Dimethyl-1H-imidazol-2-yl)pyridin-4-yl)-5,6-dihydropyridin-1(2H)-yl)ethanone trifluoroacetate salt]
> 500 | > 500 | Clc1ccc(Cn2cc(-c3ccnc(-c4nc(C5CCNC5)c[nH]4)c3)cn2)cc1 (racemic) [Example 306, 4-[1-(4-Chlorobenzyl)-1H-pyrazol-4-yl]-2-(4-pyrrolidin-3-yl-1H-imidazol-2-yl)pyridine Trifluoroacetate Salt]
≤ 100 | ≤ 500 | Cc1nc(-c2cc(-c3cncc(C(=O)NCC4CCCO4)c3)ccn2)[nH]c1C (racemic) [Example 167, 2′-(4,5-Dimethyl-1H-imidazol-2-yl)-N-((tetrahydrofuran-2-yl)methyl)-3,4′-bipyridine-5-carboxamide trifluoroacetate salt]
> 500 | > 500 | Cn1nc(C(F)(F)F)cc1-c1ccnc(-c2ncc(-c3ccccc3)[nH]2)c1 [Example 14, 4-(1-Methyl-3-(trifluoromethyl)-1H-pyrazol-5-yl)-2-(5-phenyl-1H-imidazol-2-yl)pyridine trifluoroacetate salt]
≤ 500 | > 500 | Clc1cccc(Cn2cc(-c3ccnc(-c4ncc(-c5ccccc5)[nH]4)c3)cn2)c1 [Example 21, 4-(1-(3-Chlorobenzyl)-1H-pyrazol-4-yl)-2-(5-phenyl-1H-imidazol-2-yl)pyridine trifluoroacetate salt]
> 500 | > 500 | CC(=O)N1CCC=C(c2ccnc(-c3nc(C)c(C)[nH]3)c2)C1 [Example 219, 1-(3-(2-(4,5-Dimethyl-1H-imidazol-2-yl)pyridin-4-yl)-5,6-dihydropyridin-1(2H)-yl)ethanone trifluoroacetate salt]
> 500 | > 500 | COc1cncc(-c2ccnc(-c3nnc(C)[nH]3)c2)c1 [Example 73, 5-Methoxy-2′-(5-methyl-4H-1,2,4-triazol-3-yl)-3,4′-bipyridine]
≤ 500 | ≤ 50 | c1ccc(-c2cnc(-c3cc(-c4cnn(C5CCOCC5)c4)ccn3)[nH]2)cc1 [Example 47, 2-(5-Phenyl-1H-imidazol-2-yl)-4-(1-(tetrahydro-2H-pyran-4-yl)-1H-pyrazol-4-yl)pyridine trifluoroacetate salt]
> 500 | ≤ 100 | Cc1[nH]c(-c2cc(-c3cncc(N4CCOCC4)c3)ccn2)nc1CNC1CCOCC1 [Example 283, N-{[5-Methyl-2-(5-morpholin-4-yl-3,4′-bipyridin-2′-yl)-1H-imidazol-4-yl]methyl}tetrahydro-2H-pyran-4-amine]
≤ 500 | ≤ 500 | Cc1nc(-c2cc(-c3cncc(C(=O)N4CCN(C)CC4)c3)ccn2)[nH]c1C [Example 147, (2′-(4,5-Dimethyl-1H-imidazol-2-yl)-3,4′-bipyridin-5-yl)(4-methylpiperazin-1-yl)methanone]
≤ 500 | ≤ 500 | COc1cncc(-c2ccnc(-c3nc4c([nH]3)CCC4)c2)c1 [Example 78, 2-(5-Methoxy-3,4′-bipyridin-2′-yl)-1,4,5,6-tetrahydrocyclopenta[d]imidazole]
> 500 | ≤ 100 | COCCNCc1nc(-c2cc(-c3cncc(N4CCOCC4)c3)ccn2)[nH]c1C [Example 290, 2-Methoxy-N-{[5-methyl-2-(5-morpholin-4-yl-3,4′-bipyridin-2′-yl)-1H-imidazol-4-yl]methyl}ethanamine]
≤ 500 | ≤ 500 | O=C(O)c1ccc(Cn2cc(-c3ccnc(-c4ncc(-c5ccccc5)[nH]4)c3)cn2)cc1 [Example 35, 4-((4-(2-(5-Phenyl-1H-imidazol-2-yl)pyridin-4-yl)-1H-pyrazol-1-yl)methyl)benzoic acid trifluoroacetate salt]
